≈ marks a conversion by molar mass, not a printed value.
Tests used:
[1] = tested on: Staphylococcus aureus; experiment: Antibacterial activity against methicillin-sensitive Staphylococcus aureus ATCC 29213 assessed as inhibition of bacterial growth incubated for 18 hrs by two-fold serial dilution method; type: functional
[2] = tested on: Enterococcus faecium; experiment: Antibacterial activity against Enterococcus faecium ATCC19434 assessed as inhibition of bacterial growth incubated for 18 hrs by two-fold serial dilution method; type: functional
[3] = tested on: Staphylococcus aureus; experiment: Antibacterial activity against methicillin-resistant Staphylococcus aureus ATCC 43300 assessed as inhibition of bacterial growth incubated for 18 hrs by two-fold serial dilution method; type: functional
[4] = tested on: Staphylococcus epidermidis; experiment: Antibacterial activity against Staphylococcus epidermidis ATCC12228 assessed as inhibition of bacterial growth incubated for 18 hrs by two-fold serial dilution method; type: functional
[5] = tested on: Mycoplasmoides pneumoniae; experiment: Antibacterial activity against Mycoplasma pneumoniae ATCC29342 assessed as inhibition of bacterial growth incubated for 18 hrs by two-fold serial dilution method; type: functional
[6] = tested on: Mycoplasmoides pneumoniae; experiment: Antibacterial activity against drug resistant Mycoplasma pneumoniae assessed as inhibition of bacterial growth incubated for 18 hrs by two-fold serial dilution method; type: functional
[7] = tested on: Mycoplasmoides pneumoniae; experiment: Antibacterial activity against Mycoplasma pneumoniae ATCC15531 assessed as inhibition of bacterial growth incubated for 18 hrs by two-fold serial dilution method; type: functional
[8] = tested on: HT-29; experiment: Cytotoxicity against human HT-29 cells assessed as cell growth inhibition measured after 72 hrs by MTT assay; type: functional, cell-based; details: HT-29, 72 h
[9] = tested on: HepG2; experiment: Cytotoxicity against human HepG2 cells assessed as cell growth inhibition measured after 72 hrs by MTT assay; type: functional, cell-based; details: HepG2, 72 h
[10] = tested on: HGC-27; experiment: Cytotoxicity against human HGC-27 cells assessed as cell growth inhibition measured after 72 hrs by MTT assay; type: functional, cell-based; details: HGC-27, 72 h
[11] = tested on: U-87 MG; experiment: Cytotoxicity against human U87 cells assessed as cell growth inhibition measured after 72 hrs by MTT assay; type: functional, cell-based, U-87MG ATCC
[12] = tested on: MCF7; experiment: Cytotoxicity against human MCF7 cells assessed as cell growth inhibition measured after 72 hrs by MTT assay; type: functional, cell-based; details: MCF7, 72 h

| Structure (SMILES) | MIC [1] [µg/mL] | MIC [2] [µg/mL] | MIC [3] [µg/mL] | MIC [4] [µg/mL] | MIC [5] [µg/mL] | MIC [6] [µg/mL] | MIC [7] [µg/mL] | IC50 [8] [µM] | IC50 [9] [µM] | IC50 [10] [µM] | IC50 [11] [µM] | IC50 [12] [µM] |
| --- | --- | --- | --- | --- | --- | --- | --- | --- | --- | --- | --- | --- |
| C=C[C@]1(C)C[C@@H](OC(=O)CNC(=S)NC(=O)c2ccccc2)[C@]2(C)[C@H](C)CC[C@]3(CCC(=O)[C@H]32)[C@@H](C)[C@@H]1O | > 64 | 32 (≈ 59.2 µM) | > 64 | > 64 |  |  |  |  |  |  |  |  |
| C=C[C@]1(C)C[C@@H](OC(=O)CNC(=S)NCCCCCCCCCCCCCCCCCC)[C@]2(C)[C@H](C)CC[C@]3(CCC(=O)[C@H]32)[C@@H](C)[C@@H]1O | 4 (≈ 5.8 µM) | 32 (≈ 46.4 µM) | 2 (≈ 2.9 µM) | > 64 |  |  |  |  |  |  |  |  |
| C=C[C@]1(C)C[C@@H](OC(=O)CNC(=O)Nc2ccccc2Cl)[C@]2(C)[C@H](C)CC[C@]3(CCC(=O)[C@H]32)[C@@H](C)[C@@H]1O | 0.5 (≈ 0.941 µM) | 8 (≈ 15.1 µM) | 0.5 (≈ 0.941 µM) | > 64 |  |  |  |  |  |  |  |  |
| C=C[C@]1(C)C[C@@H](OC(=O)CNC(=S)Nc2ccccc2C)[C@]2(C)[C@H](C)CC[C@]3(CCC(=O)[C@H]32)[C@@H](C)[C@@H]1O | 4 (≈ 7.59 µM) | 16 (≈ 30.4 µM) | 2 (≈ 3.8 µM) | > 64 |  |  |  |  |  |  |  |  |
| C=C[C@]1(C)C[C@@H](OC(=O)CNC(=S)Nc2ccc3ccccc3c2)[C@]2(C)[C@H](C)CC[C@]3(CCC(=O)[C@H]32)[C@@H](C)[C@@H]1O | 16 (≈ 28.4 µM) | 32 (≈ 56.9 µM) | 4 (≈ 7.11 µM) | > 64 |  |  |  |  |  |  |  |  |
| C=C[C@]1(C)C[C@@H](OC(=O)CNC(=O)NC(=O)c2ccccc2F)[C@]2(C)[C@H](C)CC[C@]3(CCC(=O)[C@H]32)[C@@H](C)[C@@H]1O | 0.5 (≈ 0.921 µM) | 8 (≈ 14.7 µM) | 0.5 (≈ 0.921 µM) | > 64 | > 8 | 2 (≈ 3.69 µM) | 1 (≈ 1.84 µM) |  |  |  |  |  |
| C=C[C@]1(C)C[C@@H](OC(=O)CNC(=O)Nc2ccc(Br)cc2)[C@]2(C)[C@H](C)CC[C@]3(CCC(=O)[C@H]32)[C@@H](C)[C@@H]1O |  | 8 (≈ 13.9 µM) |  | > 64 | 0.5 (≈ 0.869 µM) |  | 1 (≈ 1.74 µM) | > 10 | > 10 | > 10 | > 10 | > 10 |
| C=C[C@]1(C)C[C@@H](OC(=O)CNC(=O)NC(=O)c2cccc(F)c2)[C@]2(C)[C@H](C)CC[C@]3(CCC(=O)[C@H]32)[C@@H](C)[C@@H]1O | 0.5 (≈ 0.921 µM) | 16 (≈ 29.5 µM) | 0.25 (≈ 0.461 µM) | > 64 |  |  |  | > 10 | > 10 | > 10 | > 10 | > 10 |
| C=C[C@]1(C)C[C@@H](OC(=O)CNC(=S)NC(=O)c2ccc(F)cc2)[C@]2(C)[C@H](C)CC[C@]3(CCC(=O)[C@H]32)[C@@H](C)[C@@H]1O | 4 (≈ 7.16 µM) | 8 (≈ 14.3 µM) | 4 (≈ 7.16 µM) | > 64 |  |  |  |  |  |  |  |  |
| C=C[C@]1(C)C[C@@H](OC(=O)CNC(=S)Nc2ccc(F)cc2)[C@]2(C)[C@H](C)CC[C@]3(CCC(=O)[C@H]32)[C@@H](C)[C@@H]1O | 1 (≈ 1.88 µM) | 16 (≈ 30.1 µM) | 0.25 (≈ 0.471 µM) | > 64 |  |  |  |  |  |  |  |  |
| C=C[C@]1(C)C[C@@H](OC(=O)CNC(=O)Nc2ccccc2-c2ccccc2)[C@]2(C)[C@H](C)CC[C@]3(CCC(=O)[C@H]32)[C@@H](C)[C@@H]1O | 4 (≈ 6.98 µM) | 32 (≈ 55.9 µM) | 4 (≈ 6.98 µM) | > 64 |  |  |  |  |  |  |  |  |
| C=C[C@]1(C)C[C@@H](OC(=O)CNC(=S)Nc2ccc(OC)cc2)[C@]2(C)[C@H](C)CC[C@]3(CCC(=O)[C@H]32)[C@@H](C)[C@@H]1O | 1 (≈ 1.84 µM) | 16 (≈ 29.5 µM) | 0.5 (≈ 0.921 µM) | > 64 |  |  |  |  |  |  |  |  |
| C=C[C@]1(C)C[C@@H](OC(=O)CNC(=S)Nc2ccccc2)[C@]2(C)[C@H](C)CC[C@]3(CCC(=O)[C@H]32)[C@@H](C)[C@@H]1O | 1 (≈ 1.95 µM) | 16 (≈ 31.2 µM) | 1 (≈ 1.95 µM) | > 64 |  |  |  |  |  |  |  |  |
| C=C[C@]1(C)C[C@@H](OC(=O)CNC(=O)NCC)[C@]2(C)[C@H](C)CC[C@]3(CCC(=O)[C@H]32)[C@@H](C)[C@@H]1O | 2 (≈ 4.46 µM) | 32 (≈ 71.3 µM) | 2 (≈ 4.46 µM) | > 64 |  |  |  |  |  |  |  |  |
| C=C[C@]1(C)C[C@@H](OC(=O)CNC(=O)NCCC)[C@]2(C)[C@H](C)CC[C@]3(CCC(=O)[C@H]32)[C@@H](C)[C@@H]1O | 2 (≈ 4.32 µM) | 32 (≈ 69.2 µM) | 2 (≈ 4.32 µM) | > 64 |  |  |  |  |  |  |  |  |
| C=C[C@]1(C)C[C@@H](OC(=O)CO)[C@]2(C)[C@H](C)CC[C@]3(CCC(=O)[C@H]32)[C@@H](C)[C@@H]1O [PLEUROMULIN] | 1 (≈ 2.64 µM) | 32 (≈ 84.5 µM) | 2 (≈ 5.28 µM) | 16 (≈ 42.3 µM) | 0.0625 (≈ 0.165 µM) | 0.25 (≈ 0.66 µM) | 0.125 (≈ 0.33 µM) |  |  |  |  |  |

From ChEMBL document CHEMBL5143602, “Design, synthesis and antibacterial evaluation of pleuromutilin derivatives” (Bioorg Med Chem, 2022)
